Source: US8007996B2, “Methods to identify protein arginine deiminase 4 inhibitors” (University of South Carolina, priority 2007, dated 2011)
“Also recorded” adds a separate entry of the source. Like-named read-outs stand apart in the source and are kept apart here.

What was measured:
PAD4 [1] = target: T1, PAD4 (Homo sapiens, UniProt Q9UM07); assay: Standard PAD4 assay (citrulline formation from BAEE), IC50 studies; type: biochemical
T1 construct: made in house
Description: Reactions were quenched by flash freezing in liquid N2. The amount of Cit produced was then quantified according to methods known in the art. […] Inhibition Studies.

PAD4 [2] = target: T1, PAD4; assay: Inhibition studies: kinetic analysis of PAD4 activity versus BAEE concentration; type: biochemical; details: product formation linear with respect to time
PAD4 [3] = target: T1, PAD4; assay: as above; type: biochemical; details: for Ki: BAEE 0-20 mM, 0.2 μM PAD4; for kinetic mechanism of PAD4 inhibition: Lineweaver-Burk plots
Protocol: PAD4 activity was measured as a function of substrate concentration in the absence and presence of increasing concentrations of each inhibitor.
Briefly, the compounds were incubated in Reaction Buffer containing various concentrations of BAEE (0-20 mM) for 10 minutes at 37° C. PAD4 (0.2 μM) was then added to initiate the reaction and allowed to proceed for 6 additional minutes. Reactions were then quenched by flash freezing in liquid N2 and the amount of Cit produced was quantified.
[formula] using GraFit version 5.0.11.

PAD4 [4] = target: T1, PAD4; assay: ABPP-based inhibitor screen: competition with RFA for labelling of PAD4, gel fluorescence; type: binding; details: compound 2.5 mM, RFA 10 μM, PAD4 2 μM, 30 min at 37° C.
Protocol: Very generally, potential inhibitor compounds are incubated individually with PAD4 in the presence of RFA for 30 min at 37° C.; at which point the reactions are quenched with SDS-PAGE loading dye and the mixtures are run on an SDS-PAGE gel. The amount of fluorescent PAD4 can then be quantified using a molecular imaging system. PAD4 inhibitors are readily identified by a decrease in fluorescence intensity.
RFA (10 μM final) and a particular compound from the library (2.5 mM final) were pre-incubated in Screening Buffer (500 μM TCEP, 10 mM CaCl2, 100 mM HEPES 7.6, 50 mM NaCl) for 10 min at 37° C. PAD4 (2 μM final) was then added to this mixture and incubated for 30 min at 37° C. The reaction was quenched with 6×SDS-PAGE Dye, incubated at 95° C. for 10 min, and then loaded onto a 12% SDS-PAGE gel. After electrophoresis, the gel was placed in destaining buffer (10% glacial acetic acid, 45% methanol, 45% ddH2O) until the fluorescence was measured using a fluorescence based molecular imaging station (Kodak Image Station 2000MM; excitation at 535 nm, emission at 600 nm). The protein gel was then stained and destained to ensure equal protein loading. A sample without a potential inhibitor was used as a control.

[5] = 1 mM BAEE, 0.2 μM PAD4, 15 min pre-incubation at 37° C.

T1 sequence (Q9UM07 whole entry): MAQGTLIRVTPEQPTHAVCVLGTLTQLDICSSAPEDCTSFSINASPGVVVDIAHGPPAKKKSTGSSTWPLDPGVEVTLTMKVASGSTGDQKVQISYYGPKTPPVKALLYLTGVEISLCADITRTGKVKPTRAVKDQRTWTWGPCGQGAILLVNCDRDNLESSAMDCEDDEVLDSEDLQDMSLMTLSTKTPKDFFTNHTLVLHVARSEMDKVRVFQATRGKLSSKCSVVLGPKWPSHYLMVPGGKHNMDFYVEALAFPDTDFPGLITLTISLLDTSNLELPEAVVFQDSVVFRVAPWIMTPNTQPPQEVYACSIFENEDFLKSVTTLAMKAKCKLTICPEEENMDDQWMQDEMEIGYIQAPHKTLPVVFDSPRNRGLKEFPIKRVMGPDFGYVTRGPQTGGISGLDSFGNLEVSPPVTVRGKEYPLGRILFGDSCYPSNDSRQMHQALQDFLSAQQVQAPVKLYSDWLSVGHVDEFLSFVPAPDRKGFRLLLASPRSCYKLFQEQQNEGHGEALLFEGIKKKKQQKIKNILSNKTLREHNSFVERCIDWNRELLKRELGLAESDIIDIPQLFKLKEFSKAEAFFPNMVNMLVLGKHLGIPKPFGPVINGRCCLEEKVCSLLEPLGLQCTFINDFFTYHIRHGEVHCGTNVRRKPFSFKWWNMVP

## CN(C)c1ccc(O)c2c1C[C@H]1C[C@H]3[C@H](N(C)C)C(O)=C(C(N)=O)C(=O)[C@@]3(O)C(O)=C1C2=O [Minocycline]
PAD4 [1]; [5]
  IC50: 620 µM
PAD4 [1]; standard assay
  IC50: 620 µM
PAD4 [2]
  reversibility of PAD4 inhibition: reversible
PAD4 [3]; read-out: Kii
  Ki: 630 ± 150 µM
PAD4 [3]; read-out: Kis
  Ki: 180 ± 60 µM
PAD4 [3]
  kinetic mechanism of PAD4 inhibition: mixed type inhibitor; also recorded: mixed inhibitors
PAD4 [4]
  decrease in fluorescence intensity of PAD4: strong decrease

## Sulfamethox-azole
PAD4 [1]; [5]
  IC50: > 10000 µM
PAD4 [4]
  decrease in fluorescence intensity of PAD4: little to no decrease

## Azithromycin
PAD4 [1]; [5]
  IC50: > 10000 µM
PAD4 [4]
  decrease in fluorescence intensity of PAD4: little to no decrease

## Leflunomide
PAD4 [1]; [5]
  IC50: 2400 ± 800 µM
PAD4 [4]
  decrease in fluorescence intensity of PAD4: Intermediate effects

## CCCC1CC(C(=O)NC(C(C)Cl)C2OC(SC)C(O)C(O)C2O)N(C)C1 (stereo not drawn) [Clindamycin]
PAD4 [4]
  decrease in fluorescence intensity of PAD4: Intermediate effects

## CN(C)[C@H]1C(O)=C(C(N)=O)C(=O)C2(O)C(O)=C3C(=O)c4c(O)ccc(Cl)c4C(C)(O)C3CC12 (stereo partly drawn) [Chlortetracycline]
PAD4 [2]
  reversibility of PAD4 inhibition: reversible
PAD4 [3]
  kinetic mechanism of PAD4 inhibition: mixed inhibition; also recorded: mixed inhibitors

## Cn1cnc([N+](=O)[O-])c1Sc1ncnc2nc[nH]c12 [Azathioprine]
PAD4 [1]; [5]
  IC50: > 7500 µM

## COc1cc(Cc2cnc(N)nc2N)cc(OC)c1OC [Trimethoprim]
PAD4 [1]; [5]
  IC50: 7500 ± 200 µM
PAD4 [4]
  decrease in fluorescence intensity of PAD4: little to no decrease

## CN(C)[C@H]1C(O)=C(C(N)=O)C(=O)C2(O)C(O)=C3C(=O)c4c(O)cccc4C(C)(O)C3CC12 (stereo partly drawn) [Tetracycline]
PAD4 [1]; [5]
  IC50: 100 ± 10 µM

## CN(Cc1cnc2nc(N)nc(N)c2n1)c1ccc(C(=O)N[C@@H](CCC(=O)O)C(=O)O)cc1 [Methotrexate]
PAD4 [1]; [5]
  IC50: > 10000 µM
PAD4 [4]
  decrease in fluorescence intensity of PAD4: Intermediate effects

## Nc1ccc(O)c(C(=O)O)c1 [5-Amino-salicylic Acid]
PAD4 [1]; [5]
  IC50: > 10000 µM
PAD4 [4]
  decrease in fluorescence intensity of PAD4: little to no decrease

## Nc1ccc(S(=O)(=O)Nc2ccccn2)cc1 [Sulfapyridine]
PAD4 [1]; [5]
  IC50: > 10000 µM
PAD4 [4]
  decrease in fluorescence intensity of PAD4: little to no decrease

## [H]/N=C(/N)N[C@H]1[C@H](O)[C@@H](O)[C@H](O[C@@H]2O[C@@H](C)[C@](O)(C=O)[C@H]2O[C@@H]2O[C@@H](CO)[C@H](O)[C@@H](O)[C@@H]2NC)[C@@H](N/C(N)=N\[H])[C@@H]1O [Streptomycin]
PAD4 [1]
  deimination of the compound by PAD4 (substrate): not deiminated
PAD4 [2]
  reversibility of PAD4 inhibition: reversible
PAD4 [3]
  kinetic mechanism of PAD4 inhibition: competitive inhibitor
PAD4 [4]
  decrease in fluorescence intensity of PAD4: strong decrease
